We go through nine compounds from US11767341B2, “Lincosamide antibiotics and uses thereof” (President and Fellows of Harvard College, priority 2017, dated 2023).

Common to all, as to test: MIC determination
Common to all, as to format: cell-based

In assay [1] the test system is E. coli MP-74 LptD mutant. As to conditions: Escherichia coli.
For assay [2], the system named is E. coli ATCC 25922. As to conditions: Escherichia coli.
Assay [3] has as its system S. pneumoniae ATCC 49619. As to conditions: Streptococcus pneumoniae, ATCC49619; S. pneumoniae ATCC 49619; read-out: MIC.
For assay [4], the system named is E. coli MP-9 ΔTolC. Conditions: Escherichia coli.
Assay [5] relates to H. influenzae ATCC 49247. As to conditions: Haemophilus influenzae, ATCC49247.
The subject of assay [6] is E. faecalis ATCC 29212. As to conditions: Enterococcus faecalis.
Assay [7] concerns S. pyogenes ATCC 19615. As to conditions: Streptococcus pyogenes, ATCC19615; S. pyogenes ATCC 19615; read-out: MIC.
Assay [8] has as its system K. pneumoniae ATCC 10031. Conditions: Klebsiella pneumoniae, ATCC10031.
Assay [9] deals with S. aureus BAA 977 iErmA. As to conditions: Staphylococcus aureus, BAA977.
In assay [10] the test system is S. aureus ATCC 29213. Conditions: Staphylococcus aureus.
Assay [11] has as its system S. aureus MP-549 msr(a) USA 300. As to conditions: Staphylococcus aureus, USA300, S. aureus MP-549 msr(a) USA 300.
[12] abbreviates: ATCC29213, S. aureus ATCC 29213, read-out: MIC.
[13] abbreviates: ATCC25922, E. coli ATCC 25922, read-out: MIC.
Setting [14] is: H. influenzae ATCC 49247, read-out: MIC.

Values after ≈ are worked out from the molar mass of the structure shown. Where two headings read alike, the source gives them in different places. A value given as a limit tells only on which side of the number the result lay.

Regarding `CSC1O[C@H]([C@H](NC(=O)[C@H]2NC[C@@H]3CC(NC4CC4)CCO[C@H]32)[C@H](C)Cl)C(O)[C@@H](O)[C@H]1O` (some centres unmarked) [FSA-510011], the MIC in [1] is > 64 µg/mL; in assay [2] (ATCC25922) it was > 64 µg/mL; in [3], 8 µg/mL (≈ 16.2 µM); in assay [4] it was > 64 µg/mL; in assay [5], > 64 µg/mL; in assay [6] (ATCC29212), > 64 µg/mL. Also, the MIC was 2 µg/mL (≈ 4.05 µM) in [7], > 64 µg/mL in assay [8], 32 µg/mL (≈ 64.8 µM) in assay [9] and 32 µg/mL (≈ 64.8 µM) in [10] (setting [12]).
For `CSC1O[C@H]([C@H](NC(=O)[C@H]2NC[C@@H]3CC(NCc4ccccc4F)CCO[C@H]32)[C@H](C)Cl)C(O)C(O)[C@H]1O` (some centres unmarked) [FSA-510072], the MIC is > 64 µg/mL in assay [1]; > 64 µg/mL in assay [2] (ATCC25922); 30 µg/mL (≈ 53.4 µM) in assay [3]; > 64 µg/mL in [4]; > 64 µg/mL in assay [5]; 64 µg/mL (≈ 114 µM) in assay [11]. Besides, the MIC is > 64 µg/mL in assay [6] (ATCC29212), 8 µg/mL (≈ 14.2 µM) in [7], > 64 µg/mL in [8] and 64 µg/mL (≈ 114 µM) in assay [10] (setting [12]).
On to `CSC1O[C@H]([C@H](NC(=O)[C@H]2NC[C@@H]3C[C@@H](C4CCNCC4)CCO[C@H]32)[C@H](C)Cl)C(O)[C@@H](O)[C@H]1O` (some centres unmarked) [FSA-512011], for which the MIC is > 256 µg/mL in assay [1]; > 256 µg/mL in assay [2] (ATCC25922); 1 µg/mL (≈ 1.92 µM) in [3]; > 256 µg/mL in [4]; > 256 µg/mL in assay [5]; 8 µg/mL (≈ 15.3 µM) in assay [11]. Moreover, the MIC in assay [6] (ATCC29212, read-out: MIC) is 64 µg/mL (≈ 123 µM); in assay [7] it was 4 µg/mL (≈ 7.66 µM); in assay [10] (setting [12]), 8 µg/mL (≈ 15.3 µM).
As to `CSC1O[C@H]([C@H](NC(=O)[C@H]2NC[C@@H]3C[C@@H](C4CCN(C)CC4)CCO[C@H]32)[C@H](C)Cl)C(O)[C@@H](O)[C@H]1O` (some centres unmarked) [FSA-512012], the MIC in assay [1] is > 256 µg/mL; in [2] (ATCC25922) it was > 256 µg/mL; in assay [3] it was 1 µg/mL (≈ 1.87 µM); in [4] it was > 256 µg/mL; in assay [5] it was > 256 µg/mL; in assay [11], 8 µg/mL (≈ 14.9 µM). Moreover, the MIC was found to be 64 µg/mL (≈ 119 µM) in assay [6] (ATCC29212, read-out: MIC); 4 µg/mL (≈ 7.46 µM) in [7]; 8 µg/mL (≈ 14.9 µM) in [10] (setting [12]).
On to `CSC1O[C@H]([C@H](NC(=O)[C@H]2NC[C@@H]3C=C(c4ccc(C)cc4)CCO[C@@H]23)[C@H](C)Cl)C(O)[C@@H](O)[C@H]1O` (some centres unmarked) [FSA-512075], for which the MIC in assay [1] was 64 µg/mL (≈ 121 µM); in [2] (setting [13]), > 256 µg/mL; in [3] it was 0.25 µg/mL (≈ 0.474 µM); in assay [4] it was 32 µg/mL (≈ 60.7 µM); in assay [5], 64 µg/mL (≈ 121 µM); in [11] it was 0.25 µg/mL (≈ 0.474 µM). Moreover, the MIC in assay [6] (ATCC29212, read-out: MIC) was found to be 2 µg/mL (≈ 3.79 µM); in [7], 0.25 µg/mL (≈ 0.474 µM); in assay [10] (setting [12]), 0.5 µg/mL (≈ 0.949 µM).
Take `COc1ccc(C2=C[C@H]3CN[C@H](C(=O)N[C@H]([C@H](C)Cl)[C@H]4OC(SC)[C@H](O)[C@H](O)C4O)[C@@H]3OCC2)cc1` (some centres unmarked) [FSA-512076]: the MIC in assay [1] was 64 µg/mL (≈ 118 µM); in [2] (setting [13]), > 256 µg/mL; in [3], ≤ 0.12 µg/mL; in [4], 64 µg/mL (≈ 118 µM); in assay [5] (setting [14]), 128 µg/mL (≈ 236 µM); in assay [11] it was 0.25 µg/mL (≈ 0.46 µM). Besides, the MIC in assay [6] (ATCC29212, read-out: MIC) is 2 µg/mL (≈ 3.68 µM); in [7] it was ≤ 0.12 µg/mL; in assay [10] (setting [12]) it was 0.25 µg/mL (≈ 0.46 µM).
For the compound `CSC1O[C@H]([C@H](NC(=O)[C@H]2NC[C@@H]3C=C(c4ccc(C#N)cc4)CCO[C@@H]23)[C@H](C)Cl)C(O)[C@@H](O)[C@H]1O` (some centres unmarked) [FSA-512077], the MIC in [1] is 64 µg/mL (≈ 119 µM); in assay [2] (setting [13]), > 256 µg/mL; in [3] it was ≤ 0.12 µg/mL; in [4], 16 µg/mL (≈ 29.7 µM); in [5] (setting [14]), 128 µg/mL (≈ 238 µM); in [11], 0.25 µg/mL (≈ 0.465 µM). In addition, the MIC in assay [6] (ATCC29212, read-out: MIC) was 1 µg/mL (≈ 1.86 µM); in assay [7] it was ≤ 0.12 µg/mL; in assay [10] (setting [12]), 0.5 µg/mL (≈ 0.929 µM).
Regarding `CSC1O[C@H]([C@H](NC(=O)[C@H]2NC[C@@H]3C[C@@H](c4ccc(C)cc4)CCO[C@H]32)[C@H](C)Cl)C(O)[C@@H](O)[C@H]1O` (some centres unmarked) [FSA-512079b], the MIC in [1] is 16 µg/mL (≈ 30.2 µM); in [2] (setting [13]), > 128 µg/mL; in [4] it was 8 µg/mL (≈ 15.1 µM); in assay [5], 16 µg/mL (≈ 30.2 µM); in assay [11] it was 0.5 µg/mL (≈ 0.945 µM); in [6] (ATCC29212, read-out: MIC), 1 µg/mL (≈ 1.89 µM). The MIC in assay [7] was ≤ 0.12 µg/mL; in [8], 16 µg/mL (≈ 30.2 µM); in [10] (ATCC29213), 0.5 µg/mL (≈ 0.945 µM).
Turning to `CSC1O[C@H]([C@H](NC(=O)[C@H]2NC[C@@H]3C[C@H](c4ccc(C)cc4)CCO[C@H]32)[C@H](C)Cl)C(O)[C@@H](O)[C@H]1O` (some centres unmarked) [FSA-512079c], the MIC is 16 µg/mL (≈ 30.2 µM) in assay [1]; > 128 µg/mL in assay [2] (setting [13]); 8 µg/mL (≈ 15.1 µM) in assay [4]; 16 µg/mL (≈ 30.2 µM) in [5]; 0.5 µg/mL (≈ 0.945 µM) in assay [11]; 2 µg/mL (≈ 3.78 µM) in [6] (ATCC29212, read-out: MIC). In addition, the MIC is ≤ 0.12 µg/mL in assay [7], 16 µg/mL (≈ 30.2 µM) in assay [8] and 0.5 µg/mL (≈ 0.945 µM) in assay [10] (ATCC29213).
